Experimental findings from PubChem BioAssay (NCI) are described below.

Structures are written as SMILES.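 Step 1: Grow cells in 96-well plates. Step 2: Expose to compound for 48 hours at 5 concentrations. Step 3: Interpolate endpoints linearly; if unreached, use highest concentration. TGI denotes the concentration required for complete inhibition of growth.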

What all share (assay): NCI anticancer screen, dose series, 48 h
Experiment [1] deals with HCT-15 colon.
For experiment [2], the system named is UACC-257 melanoma.
In experiment [3] the test system is SNB-19 CNS.
Experiment [4] relates to LOX IMVI melanoma.
The test system of experiment [5] is MOLT-4 leukemia.
Experiment [6] relates to MDA-MB-435.
The test system of experiment [7] is SW-620 colon.
Experiment [8] relates to HT29 colon.
For experiment [9], the system named is SK-OV-3 ovarian.
Experiment [10] concerns UACC-62 melanoma.
Experiment [11] concerns SK-MEL-28 melanoma.
Experiment [12] concerns SR leukemia.
The test system of experiment [13] is COLO 205 colon.
Experiment [14] relates to SK-MEL-5 melanoma.
Experiment [15] has as its system OVCAR-8 ovarian.
For experiment [16], the system named is HOP-62 NSCLC.
In experiment [17] the test system is TK-10 renal.
For experiment [18], the system named is NCI-H522 lung.
Experiment [19] deals with BT-549 breast.

Regarding `CC(C)CC1C(=O)NCCC(NC(=O)C(N)Cc2ccc(O)cc2)C(=O)NC(Cc2ccccc2)C(=O)NC(Cc2ccccc2)NC1=O` (stereo not drawn), the TGI in experiment [1], in experiment [2], in experiment [3], in experiment [4], in experiment [5] and in [6] was above 100 µM throughout. In addition, the TGI in [7], in experiment [8], in [9], in [10], in experiment [11] and in [12] was above 100 µM throughout. Also, the TGI in [13], in experiment [14], in experiment [15], in experiment [16], in experiment [17] and in [18] was above 100 µM in each case.

For the compound `N=C(N)N1CCC(N2CCOCC2)CC1`, the TGI in experiment [1], in experiment [2], in experiment [3], in [5], in experiment [6] and in [7] was above 100 µM throughout. The TGI in experiment [8], in experiment [9], in experiment [10], in experiment [11], in experiment [12] and in experiment [13] was above 100 µM each time. Besides, the TGI in experiment [14], in [15], in experiment [16] and in experiment [17] was above 100 µM in each case.

Consider `CC(C)(C)C(=O)C(C(=O)C(C)(C)C)C(=O)C(C)(C)C`, for which the TGI in experiment [1], in experiment [2], in experiment [3], in experiment [4], in experiment [5] and in experiment [6] was above 100 µM throughout. The TGI in [7], in experiment [8], in experiment [9], in experiment [11], in experiment [12] and in [13] was above 100 µM each time. Moreover, the TGI in experiment [14], in [15], in [16], in experiment [17] and in [18] was above 100 µM throughout.

In the case of `O=C1c2ccccc2NC(=O)C2C1C(c1ccccc1)CC2(O)c1ccccc1` (stereo not drawn), the TGI is above 100 µM in [1]; above 100 µM in [2]; above 100 µM in experiment [3]; above 100 µM in experiment [4]; 71.5 µM in [5]; above 100 µM in [6]. Besides, the TGI in experiment [7], in [8], in experiment [9], in experiment [10], in experiment [11] and in [12] was above 100 µM each time. Moreover, the TGI was 36.9 µM in experiment [13]; above 100 µM in experiment [14]; above 100 µM in [15]; above 100 µM in experiment [16]; 99.7 µM in experiment [17].

As to `COc1ccc2nc3ccc(OC)cc3c(SCc3ccc([N+](=O)[O-])cc3)c2c1`, the TGI in experiment [1], in experiment [2], in experiment [3], in experiment [4], in experiment [5] and in experiment [6] was above 100 µM throughout. Besides, the TGI in experiment [7], in [8], in [9], in [10], in [11] and in experiment [12] was above 100 µM in each case. The TGI in experiment [13], in [15], in experiment [16], in experiment [17] and in experiment [18] was above 100 µM each time.

Consider `O=C1CCC(=O)N1Cc1ccccc1N=[N+]([O-])c1ccccc1CN1C(=O)CCC1=O`, for which the TGI in experiment [1], in [3], in experiment [4], in [5], in experiment [7] and in experiment [8] was above 100 µM in each case. The TGI in [10], in experiment [11], in experiment [12], in [13], in [14] and in experiment [15] was above 100 µM in each case. The TGI in [16], in [17] and in [18] was above 100 µM in each case.

Regarding `COc1ccc(C2CC(c3ccccc3)=Nc3c(-c4ccccc4)nnn32)cc1` (stereo not drawn), the TGI in experiment [1], in [2], in experiment [3], in experiment [4], in experiment [5] and in experiment [6] was above 100 µM in each case. Further, the TGI in [7], in [8], in experiment [9], in [10], in experiment [12] and in experiment [13] was above 100 µM throughout. In addition, the TGI in experiment [14] is above 100 µM; in experiment [15], above 100 µM; in [16] it was above 100 µM; in [18] it was 69.3 µM.

With `O=C(COc1ccc(OCC(=O)N2C(=O)CSC2=Nc2ccccc2)cc1)N1C(=O)CSC1=Nc1ccccc1`, the TGI in experiment [1], in [2], in experiment [3], in experiment [5], in [6] and in experiment [7] was above 100 µM each time. Further, the TGI is above 100 µM in experiment [19]; 41.2 µM in experiment [8]; above 100 µM in [9]; 36 µM in [10]; above 100 µM in [11]; 96.2 µM in [13]. Besides, the values for the TGI in [14], in [17] and in experiment [18] were 33.3 µM, above 100 µM and 42.1 µM, respectively.

As for `Cc1ccc2ccccc2c1NC1=NCCO1`, the TGI in experiment [1], in experiment [2], in experiment [3], in experiment [5], in experiment [6] and in experiment [7] was above 100 µM each time. The TGI in experiment [8], in experiment [9], in experiment [10], in [11], in experiment [12] and in experiment [13] was above 100 µM each time. Further, the TGI in experiment [14], in experiment [15], in experiment [16] and in [17] was above 100 µM each time.

`O=C(NC(CS)C(=O)O)c1cccc2c(=O)c3ccccc3[nH]c12` (stereo not drawn): the TGI in [1], in experiment [3], in [4], in experiment [5], in experiment [6] and in [7] was above 100 µM throughout. Also, the TGI in [8], in experiment [9], in experiment [10], in [11], in experiment [12] and in [13] was above 100 µM each time. In addition, the TGI in experiment [14], in experiment [15], in experiment [16], in experiment [17] and in experiment [18] was above 100 µM in each case.

`N#Cc1c(Cl)cccc1Oc1ccc(S(=O)(=O)/N=C(\NN)Nc2ccc(Cl)cc2)cc1`: the TGI in [1] is above 100 µM; in experiment [2], 72.3 µM; in [3], above 100 µM; in experiment [4], 31.4 µM; in experiment [5] it was 34.4 µM; in experiment [7] it was above 100 µM. For the same compound, the TGI was 67.8 µM in [19]; 96.2 µM in [8]; above 100 µM in [9]; 38.8 µM in [10]; above 100 µM in [11]; 29.6 µM in [13]. The TGI in [14] was 31.3 µM; in [15] it was above 100 µM; in experiment [16], 59.6 µM; in experiment [17] it was 79.6 µM.

On to `O=C(CCc1ccccc1)ON1C(=S)NC(c2ccccc2)(c2ccccc2)C1=S`, for which the TGI in experiment [1] was above 100 µM; in experiment [2], above 100 µM; in experiment [3], above 100 µM; in experiment [4], 52.8 µM; in [5], 75.5 µM; in [6], above 100 µM. Further, the TGI in [7] was above 100 µM; in experiment [19] it was above 100 µM; in [8], 93.6 µM; in [9], above 100 µM; in [10] it was above 100 µM; in [11] it was above 100 µM. Moreover, the TGI is above 100 µM in experiment [13]; 40.6 µM in [14]; above 100 µM in experiment [15]; above 100 µM in experiment [16]; above 100 µM in [17].

As for `CC(=O)OCC1OC(n2c(-c3ccccc3)c(C(C)=O)c(-c3ccc(Cl)cc3)c(C#N)c2=S)C(OC(C)=O)C(OC(C)=O)C1OC(C)=O` (stereo not drawn), the TGI in experiment [1], in experiment [2], in experiment [3], in experiment [4], in [5] and in experiment [6] was above 100 µM each time. In addition, the TGI in [7], in experiment [8], in experiment [9], in experiment [10], in experiment [11] and in experiment [12] was above 100 µM throughout. Further, the TGI in experiment [13], in experiment [14], in experiment [15], in experiment [16], in [17] and in experiment [18] was above 100 µM in each case.

Regarding `CS/C1=C(\c2ccc(C)cc2)N(c2ccccc2)C(=O)C(=O)N(c2ccccc2)/C(c2ccc(C)cc2)=C(/SC)SS1`, the TGI in [1], in [2], in experiment [3], in experiment [4], in experiment [5] and in experiment [6] was above 100 µM in each case. In addition, the TGI in experiment [7], in [8], in experiment [10], in experiment [11], in experiment [12] and in experiment [13] was above 100 µM each time. In addition, the TGI in [15], in experiment [16], in experiment [17] and in experiment [18] was above 100 µM throughout.

Regarding `COc1cc(C)c(/C=C/C(=O)N2C(=O)OC[C@@H]2c2ccccc2)c(C)c1`, the TGI is above 100 µM in [1]; above 100 µM in experiment [2]; above 100 µM in experiment [3]; above 100 µM in experiment [4]; 85.8 µM in experiment [5]; above 100 µM in experiment [6]. The TGI in experiment [7] was above 100 µM; in [8], 63.2 µM; in [9], above 100 µM; in experiment [11] it was above 100 µM; in [13], above 100 µM; in experiment [14], above 100 µM. In addition, the TGI in [15], in experiment [16], in experiment [17] and in experiment [18] was above 100 µM throughout.

With `CCOC(=O)C(/C=N\C(=S)Nc1ccc(Cl)c(Cl)c1)=C(/O)c1ccccc1`, the TGI in experiment [1] is above 100 µM; in experiment [2] it was above 100 µM; in experiment [4], above 100 µM; in [5], above 100 µM; in experiment [6], 93.5 µM; in experiment [7], above 100 µM. For the same compound, the TGI in experiment [8], in [9], in experiment [10], in experiment [11], in experiment [12] and in experiment [13] was above 100 µM in each case. Besides, the TGI in experiment [14] is above 100 µM; in experiment [15] it was above 100 µM; in [16], above 100 µM; in experiment [18] it was 26.1 µM.
